Assay results: US20210275513A1, “SHELLAC MICROCAPSULE FORMULATIONS AND COMPOSITIONS FOR TOPICAL INTESTINAL DELIVERY OF VITAMIN B3” (CONARIS RESEARCH INSTITUTE AG, priority 2016, published 2021)
Values joined by “and” are separate entries in the source; they are usually repeats but may differ in a detail not shown here. Equal entries are not always repeated.

Assays:
[1] = First-in-man (FIM) dose escalation study: NA and NAM serum levels by LC-MS/MS; format: in vivo, human
Procedure: (§1) Ten healthy volunteers were included and allocated to 2 groups of 5 subjects each. One group received NA and the other group received NAM.
In this dose escalation study, subjects ingested the test items in the morning from Monday to Thursday of every week, followed by a three-day washout period from Friday to Sunday (Table 7). Before and until 30 min after administration (or until after the second blood sampling on Mondays), subjects fasted with water only. During week 1, the subjects took one daily dose of 30 mg unformulated NA or 900 mg unformulated NAM, respectively, to measure the maximum systemic exposure and peak serum levels according to nutritional tolerable upper intake levels or levels without anticipated side effects (Table 8). From week 2 until week 6, NA microcapsules or NAM microcapsules packaged in gelatin capsules (see Example 1) were administered with weekly dose increases (Tables 7 and 8).
Blood samples were collected on Mondays and Thursdays (Table 7). On Mondays, the first blood sample was collected before ingestion of the capsules (“0 h” samples), and a second blood sample was taken after 2 hours (“2 h”), while subjects were still fasting. […] In addition, NA and NAM levels were measured in all blood samples by LC-MS/MS in an external specialised laboratory to determine exposure (see Example 1).

[2] = test system: intestinal microbiota; assay: FIM study: microbiota analyses of stool samples (16S rRNA V3-V4 sequencing); format: in vivo, human; details: for abundance-based (Bray curtis) bacterial communities distance compared with a healthy normal reference group: baseline vs end of FIM study
Excerpt: For microbiota analyses, stool samples were collected on the first Monday of the study (day 0, baseline sample) and subsequently once weekly on Thursdays (Table 7). Total genomic DNA was extracted from feces collected longitudinally from each subject using MoBio Powersoil DNA Isolation kit (Dianova GmbH, Hamburg, Germany) according to the manufacturer's instructions. Aliquots of extracted DNA were used to amplify the V3-V4 variable region of 16S rRNA using composite primers (319F and 806R), as described by Fadrosh et al. (Microbiome 2:6, 2014). Amplification was performed by Phusion® hot start flex 2X master mix (New England Biolabs, Frankfurt/M., Germany) in a GeneAmp PCR system 9700 (Life Technologies/Applied Biosystems, Darmstadt, Germany) using the following cycling conditions: an initial denaturation of 3 min at 98° C. followed by 30 cycles of denaturation at 98° C. for 10 s, annealing at 55° C. for 30 s and elongation at 72° C. for 30 s, and a final extension step at 72° C. for 10 min. PCR performance was assessed by agarose gel electrophoresis for quality (expected amplicon size) and quantity (band intensity). Quantitative normalization was performed using the SequalPrep kit (Life/Technologies/Invitrogen, Darmstadt, Germany) to pool equal amounts of amplicons per sample. Sequencing was performed by Illumina MiSeq (2×250 sequencing kit; Illumina, San Diego, Calif., USA), which allowed to generate paired end reads with entire overlapping in contigs generation. Sequencing reads were primarily processed for quality control using the software mothur (Schloss et al. 2009, Appl. Environ. Microbiol. 75:7537). Forward and reverse reads (fastq) were assembled to contig sequences and discarded if they had more than 475 bases, any ambiguous base or more than 8 homopolymers. Sequences were aligned against the mothur-curated silva alignment database and screened to have alignment in the amplified specified V3-V4 region only. Chimeric sequences were detected with the Uchime algorithm (Edgar et al. 2011, Bioinformatics 27:2194) and were also removed. […]

[3] = FIM dose escalation study: safety parameters (routine laboratory, blood pressure, body weight); details: week 1 hour 71: 30 mg free NA (NA group) or 900 mg free NAM (NAM group) daily; individual subjects
Procedure: as §1
In this dose escalation study, subjects ingested the test items in the morning from Monday to Thursday of every week, followed by a three-day washout period from Friday to Sunday (Table 7). Before and until 30 min after administration (or until after the second blood sampling on Mondays), subjects fasted with water only. During week 1, the subjects took one daily dose of 30 mg unformulated NA or 900 mg unformulated NAM, respectively, to measure the maximum systemic exposure and peak serum levels according to nutritional tolerable upper intake levels or levels without anticipated side effects (Table 8).
In order to determine the intake of NA and NAM via the usual diet, a nutritional protocol was completed by the subjects from Mondays to Wednesdays. Blood samples were collected on Mondays and Thursdays (Table 7). On Mondays, the first blood sample was collected before ingestion of the capsules (“0 h” samples), and a second blood sample was taken after 2 hours (“2 h”), while subjects were still fasting. On Thursdays, blood samples were taken after administration of the capsules (“72 h”). Blood samples were subjected to routine laboratory analyses at the central laboratory of the University Hospital Schleswig-Holstein in Kiel (Germany). […] Blood pressure was measured on Mondays and Thursdays (Table 7).

[4] = Pilot pharmacokinetic (PK) study with NAM microcapsules: NA and NAM serum levels; format: in vivo, human
Procedure: The study was a self-experiment by medical investigators performed at the Department of Internal Medicine 1 of the University Hospital Schleswig-Holstein, Campus Kiel (Kiel, Germany).
In this study, subjects ingested either 900 mg of unformulated NAM (first week) or 900 mg of microencapsulated NAM packaged in gelatin capsules (second week). […] One such “low niacin meal” consisted of 150 g of apple, 150 g of red pepper and 100 g of cucumber. One niacin equivalent is defined as 1 mg of NA(M) or 60 mg of tryptophan.
Height and body weight were recorded before ingestion of the test item.

[5] = clinical; details: both, human, in vivo, 900 mg, mean
Procedure: The study consisted of four study days, each separated by one week of washout and regeneration. On the calibration day of the study, the subjects ingested 30 mg of unformulated NA (NA group) or 900 mg of unformulated NAM (NAM group) as in the FIM study (see Example 2). Different doses of microencapsulated NA or NAM packaged in gelatin capsules were administered on the other three study days: 30 mg NA or 900 mg NAM, 150 mg NA or 1500 mg NAM, and 300 mg NA or 3000 mg NAM.
After 12 h of fasting overnight (with water only), a fasted blood sample was collected. After ingestion of NA, NAM or the respective capsules, blood samples were collected every hour until 8 hours after ingestion as well as after 10 and 12 hours. During the collection of blood samples, subjects remained fasted (with water ad libitum) except for two light meals with minimal vitamin B3 content after the blood samplings of hour 3 and hour 8. One such “low niacin meal” consisted of three rice wafers, one apple and one carrot with a total of 2.3 mg of niacin equivalents.
Statistical analyses were carried out using SPSS version 22.0 (SPSS, Chicago, Ill., USA), and graphic data analysis was performed with GraphPad Prism version 5.0 (GraphPad Software, San Diego, Calif., USA). […]

[6] = pH properties of shellac and NAM (dissolution pH, pH value); format: physicochemical

O=C(O)c1cccnc1 [free NA, nicotinic acid]
accumulation (serum levels at 72 hours vs baseline levels) [1]: No NA or NAM accumulation was observed
abundance-based (Bray curtis) bacterial communities distance compared with a healthy normal reference group [2]: significant change
Bacteroidetes (read counts) ([2]; before, during and at the end of the FIM study): moderate, but overall significant increase
Blood pressure, systolic [3]: 120 mm Hg and 130 mm Hg (2×) and 115 mm Hg and 105 mm Hg
Glucose [3]: 77 mg/dL and 92 mg/dL and 89 mg/dL and 85 mg/dL and 94 mg/dL

NC(=O)c1cccnc1 [free NAM, nicotinamide]
accumulation (serum levels at 72 hours vs baseline levels) [1]: No NA or NAM accumulation was observed
abundance-based (Bray curtis) bacterial communities distance compared with a healthy normal reference group [2]: trend
NAM serum levels ([4]; 900 mg free or enc. NAM, hour 1, subjects 1-3): 19,900 μg/L and 20,100 μg/L
NAM serum levels ([4]; 900 mg free or enc. NAM, hour 2, subjects 1-3): 15,900 μg/L and 17,200 μg/L
NAM serum levels ([4]; 900 mg free or enc. NAM, hour 3, subjects 1-3): 9,740 μg/L and 13,100 μg/L
NAM serum levels ([4]; 900 mg free or enc. NAM, hour 4, subjects 1-3): 7,390 μg/L and 10,300 μg/L
time of peak of NAM serum levels after ingestion ([4]; 900 mg, three healthy volunteers): 1 h
concentration at 1 h ([4]; human, serum, oral, 900 mg, 900 mg free or enc. NAM, hour 1, subjects 1-3): 11600 ng/mL
concentration at 2 h ([4]; human, serum, oral, 900 mg, 900 mg free or enc. NAM, hour 2, subjects 1-3): 10300 ng/mL
concentration at 3 h ([4]; human, serum, oral, 900 mg, 900 mg free or enc. NAM, hour 3, subjects 1-3): 8380 ng/mL
concentration at 4 h ([4]; human, serum, oral, 900 mg, 900 mg free or enc. NAM, hour 4, subjects 1-3): 5920 ng/mL
AUC [5]: 78300 ng·h/mL
pH value [6]: 6.61
Blood pressure, systolic [3]: 120 mm Hg (4×) and 105 mm Hg
Glucose [3]: 87 mg/dL and 80 mg/dL and 92 mg/dL and 84 mg/dL and 83 mg/dL
